Data from ChEMBL document CHEMBL1201862, “PubChem BioAssay data set” (2004).
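96-well plates; 48 h exposure; 5 concentrations. Endpoints by linear interpolation between flanking doses. Not reached: highest tested concentration assigned. GI50 is the concentration that inhibits growth by half.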 Calls of active or inactive are those of the source. Rule as the data show it: active = GI50 up to about 1.1 µM and inactive = higher.

Assays:
Assay in all cases: DTP human tumour cell line panel, 48 h
A498 = tested on: A498
A549 = tested on: A549
CAKI-1 = tested on: CAKI-1
CCRF-CEM = tested on: CCRF-CEM
COLO 205 = tested on: COLO 205
DLD-1 = tested on: DLD-1
DMS-114 = tested on: DMS-114
DMS-273 = tested on: DMS-273
EKVX = tested on: EKVX
HCC 2998 = tested on: HCC 2998
HCT-116 = tested on: HCT-116
HCT-15 = tested on: HCT-15
HL-60 = tested on: HL-60
HOP-18 = tested on: HOP-18
HOP-62 = tested on: HOP-62
HOP-92 = tested on: HOP-92
HT-29 = tested on: HT-29
IGROV-1 = tested on: IGROV-1
K562 = tested on: K562
KM-20L2 = tested on: KM-20L2
KM12 = tested on: KM12
LOX IMVI = tested on: LOX IMVI
M19-MEL = tested on: M19-MEL
MCF7 = tested on: MCF7
MOLT-4 = tested on: MOLT-4
Malme-3M = tested on: Malme-3M
NCI-H226 = tested on: NCI-H226
NCI-H23 = tested on: NCI-H23
NCI-H460 = tested on: NCI-H460
NCI-H522 = tested on: NCI-H522
NCI/ADR-RES = tested on: NCI/ADR-RES
OVCAR-3 = tested on: OVCAR-3
OVCAR-4 = tested on: OVCAR-4
OVCAR-5 = tested on: OVCAR-5
OVCAR-8 = tested on: OVCAR-8
RPMI-8226 = tested on: RPMI-8226
RXF 393 = tested on: RXF 393
SF-268 = tested on: SF-268
SF-295 = tested on: SF-295
SF-539 = tested on: SF-539
SK-MEL-28 = tested on: SK-MEL-28
SK-MEL-2 = tested on: SK-MEL-2
SK-MEL-5 = tested on: SK-MEL-5
SK-OV-3 = tested on: SK-OV-3
SN12C = tested on: SN12C
SNB-19 = tested on: SNB-19
SNB-75 = tested on: SNB-75
SNB-78 = tested on: SNB-78
SW-620 = tested on: SW-620
U-251 = tested on: U-251
UACC-257 = tested on: UACC-257
UACC-62 = tested on: UACC-62
UO-31 = tested on: UO-31
XF498 = tested on: XF498

Measured: GI50

CC1OC(CO)(n2cnc3c(N)ncnc32)C(O)C1O (centres undefined)
inactive: A498 > 100 µM | A549 > 100 µM | CAKI-1 > 100 µM | CCRF-CEM > 100 µM | COLO 205 > 100 µM | DLD-1 > 100 µM | DMS-114 > 100 µM | DMS-273 > 100 µM | EKVX > 100 µM | HCC 2998 > 100 µM | HCT-116 > 100 µM | HL-60 > 100 µM | HOP-18 > 100 µM | HOP-62 > 100 µM | HOP-92 > 100 µM | HT-29 > 100 µM | IGROV-1 > 100 µM | K562 > 100 µM | KM-20L2 > 100 µM | KM12 > 100 µM | LOX IMVI > 100 µM | M19-MEL > 100 µM | MCF7 > 100 µM | MOLT-4 > 100 µM | Malme-3M > 100 µM | NCI-H226 > 100 µM | NCI-H23 > 100 µM | NCI-H460 > 100 µM | NCI-H522 > 100 µM | NCI/ADR-RES > 100 µM | OVCAR-3 > 100 µM | OVCAR-4 > 100 µM | OVCAR-5 > 100 µM | OVCAR-8 > 100 µM | RPMI-8226 > 100 µM | RXF 393 > 100 µM | SF-268 > 100 µM | SF-295 > 100 µM | SF-539 > 100 µM | SK-MEL-28 > 100 µM | SK-MEL-2 > 100 µM | SK-MEL-5 > 100 µM | SK-OV-3 > 100 µM | SN12C > 100 µM | SNB-19 > 100 µM | SNB-75 > 100 µM | SNB-78 > 100 µM | SW-620 > 100 µM | U-251 > 100 µM | UACC-257 > 100 µM | UACC-62 > 100 µM | UO-31 > 100 µM | XF498 > 100 µM
> 100 µM: HCT-15
